Experiments:
STS26T [1] = experiment: relative IC50 (inflection point of fitted dose-response curve, CellTox-Green cytotoxicity, 72 h; top asymptote may be below 50%); higher = less potent
How it was run: (§1)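 MPNST cell lines and primary human Schwann cells were incubated 72 h at 37 °C in 384-well plates holding five 10-fold compound dilutions. CellTox-Green was added before seeding at a final 1:1000 dilution and reported fluorescence from DNA released by disrupted cells. Signals were scaled to vehicle and positive-control wells, and cultures failing plate quality control were dropped. Drug sensitivity score and relative IC50 come from four-parameter logistic fits, with IC50 censored at the top concentration.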

ST8814 [2] = experiment: as above
How it was run: as §1

S1507-2 [3] = experiment: as above
How it was run: as §1

HSC2 [4] = experiment: as above
How it was run: as §1

HSC1 [5] = experiment: as above
How it was run: as §1

HS-PSS [6] = experiment: relative IC50 (inflection point of fitted dose-response curve, CellTiter-Glo viability, 72 h; top asymptote may be below 50% inhibition); higher = less potent
How it was run: (§2)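 Viability was scored by CellTiter-Glo ATP luminescence, scaled from vehicle to positive-control wells, with duplicates averaged where present. The cells, MPNST lines and primary human Schwann cells at 750–1000 per well, sat 72 h at 37 °C, 5% CO2, in 384-well plates preprinted with each compound at five concentrations in 10-fold steps. Four-parameter logistic fits were run on the data. These fits give drug sensitivity score and relative IC50 censored at the top concentration, and percent inhibition is reported at the top concentration.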

STS26T [7] = experiment: as above
How it was run: as §2

YST-1 = experiment: as above
How it was run: as §2

HS-Sch-2 = experiment: as above
How it was run: as §2

ST8814 [8] = experiment: as above
How it was run: as §2

S462 = experiment: as above
How it was run: as §2

S1507-2 [9] = experiment: as above
How it was run: as §2

HSC2 [10] = experiment: as above
How it was run: as §2

HSC1 [11] = experiment: as above
How it was run: as §2

HS-PSS [12] = experiment: relative IC50 (inflection point of fitted dose-response curve, CellTox-Green cytotoxicity, 72 h; top asymptote may be below 50%); higher = less potent
How it was run: as §1

Structure (SMILES) | relative IC50 (STS26T [1]) [nM] | relative IC50 (ST8814 [2]) [nM] | relative IC50 (S1507-2 [3]) [nM] | relative IC50 (HSC2 [4]) [nM] | relative IC50 (HSC1 [5]) [nM] | relative IC50 (HS-PSS [6]) [nM] | relative IC50 (STS26T [7]) [nM] | relative IC50 (YST-1) [nM] | relative IC50 (HS-Sch-2) [nM] | relative IC50 (ST8814 [8]) [nM] | relative IC50 (S462) [nM] | relative IC50 (S1507-2 [9]) [nM] | relative IC50 (HSC2 [10]) [nM] | relative IC50 (HSC1 [11]) [nM] | relative IC50 (HS-PSS [12]) [nM]
CC(=O)Nc1ccc(C(=O)Nc2ccccc2N)cc1 [Tacedinaline] | > 1000 | > 1000 | > 1000 | > 1000 | > 1000 | > 1000 | > 1000 | > 1000 | > 1000 | > 1000 | > 1000 | > 1000 | > 1000 | > 1000 | –
CS(=O)(=O)OCCCCOS(C)(=O)=O [Busulfan] | > 100000 | > 100000 | > 100000 | > 100000 | > 100000 | > 100000 | > 100000 | – | – | > 100000 | > 100000 | > 100000 | > 100000 | > 100000 | > 100000
S=P(N1CC1)(N1CC1)N1CC1 [Thio-TEPA] | > 50000 | > 50000 | > 50000 | > 50000 | > 50000 | > 50000 | > 50000 | > 50000 | – | > 50000 | > 50000 | > 50000 | > 50000 | > 50000 | > 50000
CC(C)Cn1cnc2c(N)nc3ccccc3c21 [Imiquimod] | > 2500 | > 2500 | > 2500 | > 2500 | > 2500 | – | > 2500 | > 2500 | – | > 2500 | > 2500 | > 2500 | > 2500 | > 2500 | > 2500
CCNC(=O)c1noc(-c2cc(C(C)C)c(O)cc2O)c1-c1ccc(CN2CCOCC2)cc1 [NVP-AUY922] | 42.1 | 67.9 | 13.9 | 20.4 | 23.2 | – | 22.9 | – | – | 22.9 | 21.7 | 18.3 | 12 | 14.3 | –
CCC1=C[C@@H]2CN(C1)Cc1c([nH]c3ccccc13)[C@@](C(=O)OC)(c1cc3c(cc1OC)N(C)[C@H]1[C@@](O)(C(=O)OC)[C@H](OC(C)=O)[C@]4(CC)C=CCN5CC[C@]31[C@@H]54)C2 [Vinorelbine] | 15.3 | 212 | 129 | 647 | 484 | 21.4 | 22.5 | 3 | 4.21 | 140 | 34 | 109 | 95.7 | 153 | –
CNC(=O)c1cc(Oc2ccc(NC(=O)Nc3ccc(Cl)c(C(F)(F)F)c3)cc2)ccn1 [Sorafenib] | > 1000 | > 1000 | > 1000 | > 1000 | > 1000 | > 1000 | > 1000 | – | > 1000 | > 1000 | > 1000 | > 1000 | > 1000 | > 1000 | > 1000
O=C(Nc1ccncc1)C(=O)c1cn(Cc2ccc(Cl)cc2)c2ccccc12 [Indibulin] | 146 | 430 | 494 | 1580 | 2000 | – | 164 | 530 | 739 | 312 | 334 | 241 | 718 | 361 | > 10000
CCN(CC)CCCC(C)Nc1c2ccc(Cl)cc2nc2ccc(OC)cc12 (stereo not given) [Mepacrine aq] | 2370 | 2910 | 2200 | 1170 | 956 | – | 1320 | – | – | 929 | 918 | 1070 | 1230 | 1230 | –
Cn1c(=O)n(-c2ccc(C(C)(C)C#N)cc2)c2c3cc(-c4cnc5ccccc5c4)ccc3ncc21 [Dactolisib] | > 1000 | > 1000 | > 1000 | > 1000 | > 1000 | 15.7 | 7.77 | 11.9 | 12.1 | 15.3 | 14.8 | 11 | 8.32 | 8.56 | –
C=CCn1c(=O)c2cnc(Nc3ccc(N4CCN(C)CC4)cc3)nc2n1-c1cccc(C(C)(C)O)n1 [MK1775] | 167 | 375 | 196 | 1510 | 1210 | 547 | 361 | 326 | 84.1 | 264 | 111 | 231 | 225 | 224 | –
Cn1c(CCCC(=O)O)nc2cc(N(CCCl)CCCl)ccc21 [Bendamustine] | > 10000 | > 10000 | > 10000 | > 10000 | > 10000 | > 10000 | > 10000 | – | > 10000 | > 10000 | > 10000 | > 10000 | > 10000 | > 10000 | > 10000
OC[C@H]1O[C@@H](n2cnc3c2N=CNC[C@H]3O)C[C@@H]1O [Pentostatin] | > 10000 | > 10000 | > 10000 | > 10000 | > 10000 | > 10000 | > 10000 | – | > 10000 | > 10000 | > 10000 | > 10000 | > 10000 | > 10000 | > 10000
COC(=O)C[C@](O)(CCCC(C)(C)O)C(=O)O[C@@H]1C(OC)=C[C@]23CCCN2CCc2cc4c(cc2[C@H]13)OCO4 [Omacetaxine] | 130 | 489 | 524 | 589 | 1090 | 47 | 41.6 | 9.94 | 67.5 | 46.5 | 23.8 | 66.1 | 50.8 | 51.7 | –
Cn1c(Nc2ccc(C(F)(F)F)cc2)nc2cc(Oc3ccnc(-c4ncc(C(F)(F)F)[nH]4)c3)ccc21 [RAF265] | > 1000 | > 1000 | > 1000 | > 1000 | > 1000 | 177 | 137 | 131 | – | 107 | 111 | 136 | 20.6 | 49.6 | > 1000
N#Cc1ccc(C(c2ccc(C#N)cc2)n2cncn2)cc1 [Letrozole] | > 10000 | > 10000 | > 10000 | > 10000 | > 10000 | – | > 10000 | > 10000 | – | > 10000 | > 10000 | > 10000 | > 10000 | > 10000 | > 10000
NC(=O)Nc1cc(-c2cccc(F)c2)sc1C(=O)N[C@H]1CCCNC1 [AZD7762] | 135 | 243 | 57.1 | 266 | 313 | 207 | 139 | 313 | 67 | 149 | 54.7 | 63.1 | 310 | 161 | –
CC[C@@]1(O)C(=O)OCc2c1cc1n(c2=O)Cc2cc3ccccc3nc2-1 [Camptotechin] | 126 | 14.6 | 244 | 136 | 75.7 | – | 62.8 | – | – | 30.7 | 30.2 | 100 | 40.5 | 47.3 | –
Cc1sc2c(c1C)C(c1ccc(Cl)cc1)=N[C@@H](CC(=O)OC(C)(C)C)c1nnc(C)n1-2 [(+)JQ1] | > 10000 | 404 | 546 | > 10000 | > 10000 | – | 226 | – | – | 208 | 386 | 161 | 462 | 420 | –
Cc1cc(Nc2cc(CN3CCOCC3)c3nc(C)c(Cc4ccc(Cl)cc4F)n3n2)n[nH]1 [Gandotinib] | 1700 | 2770 | 2400 | 2250 | 1990 | 1000 | 718 | 1170 | 1550 | 1730 | 862 | 1200 | 1090 | 1270 | –
COc1ccc(-c2cc3c(C)nc(N)nc3n([C@H]3CC[C@H](OCCO)CC3)c2=O)cn1 | 350 | 1520 | 1630 | 2710 | 501 | 404 | 124 | 57.8 | 476 | 209 | 196 | 89 | 270 | 197 | –
O=C(O)C1(C(=O)O)CCC1.[NH2-].[NH2-].[Pt+2] [Carboplatin aq] | 27300 | 25100 | 37300 | 20500 | 27600 | – | 19500 | – | – | 24400 | 17000 | 20600 | 14600 | 14500 | –
COC1=C2C[C@@H](C)C[C@H](OC)[C@H](O)[C@@H](C)/C=C(\C)[C@H](OC(N)=O)[C@@H](OC)/C=C\C=C(/C)C(=O)NC(=CC1=O)C2=O [Geldanamycin] | 1160 | 1320 | 2650 | 211 | 204 | – | 780 | – | – | 765 | 454 | 1690 | 338 | 363 | –
CCN(CC)CCCC(C)Nc1ccnc2cc(Cl)ccc12 (stereo not given) [Chloroquine aq] | 3190 | 2820 | 3280 | 19900 | 15800 | – | 5430 | – | – | 3100 | 6940 | 1800 | 13100 | 12300 | –
COc1cc2c(cc1-c1c(C)noc1C)ncc1[nH]c(=O)n([C@H](C)c3ccccn3)c12 [I-BET151] | > 10000 | 1240 | 1400 | > 10000 | – | 1710 | 1130 | 1070 | 1060 | 918 | 1310 | 1250 | 1150 | 992 | > 10000
CC(=O)O[C@]1(C(C)=O)CC[C@H]2[C@@H]3C=C(C)C4=CC(=O)CC[C@]4(C)[C@H]3CC[C@@]21C [Megestrol] | > 10000 | > 10000 | > 10000 | > 10000 | > 10000 | – | > 10000 | – | – | > 10000 | > 10000 | > 10000 | > 10000 | > 10000 | –
C=CC(=O)N1CCC[C@@H](n2nc(-c3ccc(Oc4ccccc4)cc3)c3c(N)ncnc32)C1 [Ibrutinib] | > 1000 | > 1000 | > 1000 | > 1000 | > 1000 | – | > 1000 | > 1000 | > 1000 | > 1000 | > 1000 | > 1000 | > 1000 | > 1000 | > 1000
Nc1nc(OCc2cc(Br)cs2)c2[nH]cnc2n1 [Lomeguatrib] | > 10000 | > 10000 | > 10000 | > 10000 | > 10000 | – | > 10000 | > 10000 | > 10000 | > 10000 | > 10000 | > 10000 | > 10000 | > 10000 | > 10000

Reference: the supplement of paper PMC5579334
